Measurements published in ChEMBL document CHEMBL1155185, “Design, synthesis, screening, and molecular modeling study of a new series of ROS1 receptor tyrosine kinase inhibitors” (Bioorg Med Chem Lett, 2009).

target: Proto-oncogene tyrosine-protein kinase ROS (Homo sapiens) (UniProt P08922); experiment: Inhibition of ROS1 at 20 uM by HotSpot assay
Sequence (P08922 whole entry): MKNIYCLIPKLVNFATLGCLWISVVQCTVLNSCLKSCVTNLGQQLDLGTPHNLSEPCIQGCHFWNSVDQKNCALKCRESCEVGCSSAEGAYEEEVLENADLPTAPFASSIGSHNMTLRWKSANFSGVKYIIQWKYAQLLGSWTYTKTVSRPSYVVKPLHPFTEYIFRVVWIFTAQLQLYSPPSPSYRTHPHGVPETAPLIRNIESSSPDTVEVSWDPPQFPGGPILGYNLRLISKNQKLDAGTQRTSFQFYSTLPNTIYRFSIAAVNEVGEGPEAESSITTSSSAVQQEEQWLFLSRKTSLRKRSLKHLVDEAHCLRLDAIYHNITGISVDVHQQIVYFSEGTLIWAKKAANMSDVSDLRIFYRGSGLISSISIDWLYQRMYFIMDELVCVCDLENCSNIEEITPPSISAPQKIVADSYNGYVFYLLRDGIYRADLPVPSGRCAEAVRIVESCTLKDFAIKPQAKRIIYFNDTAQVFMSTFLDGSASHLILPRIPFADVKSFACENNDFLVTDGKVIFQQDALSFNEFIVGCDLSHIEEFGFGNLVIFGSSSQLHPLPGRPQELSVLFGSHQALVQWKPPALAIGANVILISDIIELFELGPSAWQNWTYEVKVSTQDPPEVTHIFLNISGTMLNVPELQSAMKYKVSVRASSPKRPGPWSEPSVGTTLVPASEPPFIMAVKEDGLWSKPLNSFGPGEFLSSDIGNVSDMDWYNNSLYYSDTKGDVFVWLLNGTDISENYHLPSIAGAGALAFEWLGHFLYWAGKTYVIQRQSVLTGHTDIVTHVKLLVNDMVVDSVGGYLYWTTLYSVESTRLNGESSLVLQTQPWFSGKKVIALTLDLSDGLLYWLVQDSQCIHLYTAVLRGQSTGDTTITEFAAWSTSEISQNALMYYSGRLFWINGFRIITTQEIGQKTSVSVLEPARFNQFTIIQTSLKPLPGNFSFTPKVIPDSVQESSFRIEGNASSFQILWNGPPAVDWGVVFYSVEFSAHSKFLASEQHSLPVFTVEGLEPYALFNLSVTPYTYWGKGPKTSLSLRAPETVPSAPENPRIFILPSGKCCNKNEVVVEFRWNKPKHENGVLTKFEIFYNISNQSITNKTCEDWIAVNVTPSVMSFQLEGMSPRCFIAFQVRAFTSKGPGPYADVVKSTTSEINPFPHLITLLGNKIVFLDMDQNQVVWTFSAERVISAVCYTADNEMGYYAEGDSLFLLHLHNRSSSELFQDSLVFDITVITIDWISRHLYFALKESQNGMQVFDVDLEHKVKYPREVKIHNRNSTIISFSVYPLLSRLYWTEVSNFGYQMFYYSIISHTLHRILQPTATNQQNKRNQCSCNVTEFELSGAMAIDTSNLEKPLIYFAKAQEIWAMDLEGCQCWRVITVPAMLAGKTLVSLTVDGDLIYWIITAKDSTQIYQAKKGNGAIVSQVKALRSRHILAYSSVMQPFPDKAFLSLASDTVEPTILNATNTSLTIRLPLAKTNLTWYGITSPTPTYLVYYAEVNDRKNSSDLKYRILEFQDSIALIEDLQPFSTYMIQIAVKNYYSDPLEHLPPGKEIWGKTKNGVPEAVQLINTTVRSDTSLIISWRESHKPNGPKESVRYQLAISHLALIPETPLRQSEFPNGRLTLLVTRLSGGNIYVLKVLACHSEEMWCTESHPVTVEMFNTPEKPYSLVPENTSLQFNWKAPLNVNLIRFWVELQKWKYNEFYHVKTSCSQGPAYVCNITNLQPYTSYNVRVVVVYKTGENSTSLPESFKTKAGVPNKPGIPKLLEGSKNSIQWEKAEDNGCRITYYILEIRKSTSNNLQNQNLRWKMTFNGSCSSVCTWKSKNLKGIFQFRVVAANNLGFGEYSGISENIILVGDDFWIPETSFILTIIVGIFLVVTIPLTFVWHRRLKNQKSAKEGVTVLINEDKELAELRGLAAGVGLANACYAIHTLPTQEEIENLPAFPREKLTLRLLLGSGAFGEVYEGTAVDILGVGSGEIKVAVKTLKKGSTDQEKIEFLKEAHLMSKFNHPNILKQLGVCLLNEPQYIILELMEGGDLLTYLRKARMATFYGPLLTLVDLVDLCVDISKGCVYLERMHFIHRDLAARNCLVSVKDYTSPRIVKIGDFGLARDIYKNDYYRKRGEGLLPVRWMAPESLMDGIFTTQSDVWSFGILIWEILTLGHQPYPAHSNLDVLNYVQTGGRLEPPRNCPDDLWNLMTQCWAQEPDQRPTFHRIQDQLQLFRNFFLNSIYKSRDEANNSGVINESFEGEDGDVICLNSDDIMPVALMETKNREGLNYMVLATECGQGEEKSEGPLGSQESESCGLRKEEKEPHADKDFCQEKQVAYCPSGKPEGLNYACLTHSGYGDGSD

Row | Compound | inhibition
1 | CC(=O)c1ccc(-c2cc(-c3cn(CC#N)nc3-c3cc(C)cc(O)c3)ccn2)cc1 | < 30%
2 | COc1cc(C)cc(-c2nn(CC#N)cc2-c2ccc(-c3cccnc3)nc2)c1 | < 30%
3 | CC(=O)c1ccccc1-c1cc(-c2cn(CC#N)nc2-c2cc(C)cc(O)c2)ccn1 | < 30%
4 | CC(=O)Nc1ccccc1-c1cc(-c2cnn(CC#N)c2-c2cc(C)cc(O)c2)ccn1 | < 30%
5 | COc1cc(C)cc(-c2nn(CC#N)cc2-c2ccnc(-c3ccc(C#N)cc3)c2)c1 | < 30%
6 | COc1cc(C)cc(-c2nn(CC#N)cc2-c2ccnc(-c3cccnc3)c2)c1 | < 30%
7 | COc1cc(C)cc(-c2c(-c3ccc(-c4ccccc4C(C)=O)nc3)cnn2CC#N)c1 | < 30%
8 | Cc1cc(O)cc(-c2nn(CC#N)cc2-c2ccnc(-c3ccc(N(C)C)cc3)c2)c1 | < 30%
9 | COc1cc(C)cc(-c2c(-c3ccnc(-c4cccc(NC(C)=O)c4)c3)cnn2CC#N)c1 | < 30%
10 | COc1cc(C)cc(-c2nn(CC#N)cc2-c2ccnc(-c3ccc(Oc4ccccc4)cc3)c2)c1 | < 30%
11 | COc1cc(C)cc(-c2nn(CC#N)cc2-c2ccnc(-c3ccc(N(C)C)cc3)c2)c1 | < 30%
12 | CC(=O)c1ccccc1-c1ccc(-c2cn(CC#N)nc2-c2cc(C)cc(O)c2)cn1 | < 30%
13 | CC(=O)Nc1cccc(-c2cc(-c3cnn(CC#N)c3-c3cc(C)cc(O)c3)ccn2)c1 | < 30%
14 | COc1cc(C)cc(-c2c(-c3ccc(-c4cccc(C(C)=O)c4)nc3)cnn2CC#N)c1 | < 30%
15 | CC(=O)c1ccccc1-c1cc(-c2cnn(CC#N)c2-c2cc(C)cc(O)c2)ccn1 | < 30%
16 | COc1cc(C)cc(-c2nn(CC#N)cc2-c2ccnc(-c3cccc(C(C)=O)c3)c2)c1 | < 30%
17 | COc1cc(C)cc(-c2nn(CC#N)cc2-c2ccnc(-c3ccc(C(C)=O)cc3)c2)c1 | < 30%

Row | Compound | inhibition
18 | Cc1cc(O)cc(-c2c(-c3ccnc(-c4ccc(N(C)C)cc4)c3)cnn2CC#N)c1 | < 30%
19 | Cc1cc(O)cc(-c2c(-c3ccnc(-c4ccc(Oc5ccccc5)cc4)c3)cnn2CC#N)c1 | < 30%
20 | CC(=O)c1cccc(-c2ccc(-c3cn(CC#N)nc3-c3cc(C)cc(O)c3)cn2)c1 | < 30%
21 | COc1cc(C)cc(-c2c(-c3ccnc(-c4cccnc4)c3)cnn2CC#N)c1 | < 30%
22 | COc1cc(C)cc(-c2c(-c3ccnc(-c4ccccc4)c3)cnn2CC#N)c1 | < 30%
23 | CC(=O)c1cccc(-c2ccc(-c3cnn(CC#N)c3-c3cc(C)cc(O)c3)cn2)c1 | < 30%
24 | CC(=O)c1cccc(-c2cc(-c3cn(CC#N)nc3-c3cc(C)cc(O)c3)ccn2)c1 | < 30%
25 | COc1cc(C)cc(-c2c(-c3ccnc(-c4ccccc4NC(C)=O)c3)cnn2CC#N)c1 | < 30%
26 | CC(=O)Nc1cccc(-c2cc(-c3cn(CC#N)nc3-c3cc(C)cc(O)c3)ccn2)c1 | < 30%
27 | COc1cc(C)cc(-c2nn(CC#N)cc2-c2ccnc(-c3cccc(NC(C)=O)c3)c2)c1 | < 30%
28 | Cc1cc(O)cc(-c2c(-c3ccnc(-c4cccnc4)c3)cnn2CC#N)c1 | < 30%
29 | Cc1cc(O)cc(-c2nn(CC#N)cc2-c2ccc(-c3cccnc3)nc2)c1 | < 30%
30 | COc1cc(C)cc(-c2c(-c3ccnc(-c4cccc(C(C)=O)c4)c3)cnn2CC#N)c1 | < 30%
31 | COc1cc(C)cc(-c2c(-c3ccnc(-c4ccc(C#N)cc4)c3)cnn2CC#N)c1 | < 30%
32 | Cc1cc(O)cc(-c2nn(CC#N)cc2-c2ccnc(-c3ccccc3)c2)c1 | < 30%
33 | CC(=O)c1ccccc1-c1ccc(-c2cnn(CC#N)c2-c2cc(C)cc(O)c2)cn1 | < 30%

Continued, values first:

Row | inhibition | Compound
34 | < 30% | COc1cc(C)cc(-c2c(-c3ccnc(-c4ccc(Oc5ccccc5)cc4)c3)cnn2CC#N)c1
35 | < 30% | COc1cc(C)cc(-c2c(-c3ccnc(-c4ccccc4C(C)=O)c3)cnn2CC#N)c1
36 | < 30% | COc1cc(C)cc(-c2c(-c3ccnc(-c4ccc(C(C)=O)cc4)c3)cnn2CC#N)c1
37 | < 30% | COc1cc(C)cc(-c2nn(CC#N)cc2-c2ccc(-c3ccccc3C(C)=O)nc2)c1
38 | < 30% | COc1cc(C)cc(-c2c(-c3ccnc(-c4ccc(N(C)C)cc4)c3)cnn2CC#N)c1
39 | < 30% | Cc1cc(O)cc(-c2c(-c3ccnc(-c4ccccc4)c3)cnn2CC#N)c1
40 | < 30% | Cc1cc(O)cc(-c2nn(CC#N)cc2-c2ccnc(-c3ccc(Oc4ccccc4)cc3)c2)c1
41 | < 30% | Cc1cc(O)cc(-c2nn(CC#N)cc2-c2ccnc(-c3ccc(C#N)cc3)c2)c1
42 | < 30% | COc1cc(C)cc(-c2c(-c3ccc(-c4cccnc4)nc3)cnn2CC#N)c1
43 | < 30% | CC(=O)Nc1ccccc1-c1cc(-c2cn(CC#N)nc2-c2cc(C)cc(O)c2)ccn1
44 | < 30% | COc1cc(C)cc(-c2nn(CC#N)cc2-c2ccnc(-c3ccccc3)c2)c1
45 | < 30% | Cc1cc(O)cc(-c2c(-c3ccnc(-c4ccc(C#N)cc4)c3)cnn2CC#N)c1
46 | < 30% | COc1cc(C)cc(-c2nn(CC#N)cc2-c2ccnc(-c3ccccc3C(C)=O)c2)c1
47 | < 30% | COc1cc(C)cc(-c2nn(CC#N)cc2-c2ccc(-c3cccc(C(C)=O)c3)nc2)c1
48 | < 30% | CC(=O)c1cccc(-c2cc(-c3cnn(CC#N)c3-c3cc(C)cc(O)c3)ccn2)c1
49 | 96% | Cc1cc(O)cc(-c2nn(CC#N)cc2-c2ccnc(-c3cccnc3)c2)c1
50 | < 30% | COc1cc(C)cc(-c2nn(CC#N)cc2-c2ccnc(-c3ccccc3NC(C)=O)c2)c1
51 | < 30% | CC(=O)c1ccc(-c2cc(-c3cnn(CC#N)c3-c3cc(C)cc(O)c3)ccn2)cc1
